According to PubChem BioAssay (NCI):
“And” between values parts separate entries of the source, which are not always exact repeats. Equal values may be shown once.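 Protocol summary: plate cells (96-well), add compound at 5 concentrations, incubate 48 h, interpolate endpoints linearly. GI50: concentration for 50% inhibition of growth. TGI is the concentration that stops growth completely.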

Assays:
Assay in all cases: inhibition of tumour cell growth, NCI panel, 48 h
MOLT-4 leukemia = tested on: MOLT-4 leukemia
MDA-N = tested on: MDA-N
TK-10 renal = tested on: TK-10 renal
SR leukemia = tested on: SR leukemia
NCI-H23 lung = tested on: NCI-H23 lung
U251 CNS = tested on: U251 CNS
CCRF-CEM leukemia = tested on: CCRF-CEM leukemia
EKVX NSCLC = tested on: EKVX NSCLC
NCI/ADR-RES ovarian = tested on: NCI/ADR-RES ovarian
HL-60(TB) leukemia = tested on: HL-60(TB) leukemia

SMILES	TGI (MOLT-4 leukemia) [µM]	TGI (MDA-N) [µM]	TGI (TK-10 renal)	TGI (SR leukemia) [µM]	TGI (NCI-H23 lung) [µM]	TGI (U251 CNS) [µM]	TGI (CCRF-CEM leukemia) [µM]	TGI (EKVX NSCLC) [µM]	TGI (NCI/ADR-RES ovarian) [µM]	TGI (HL-60(TB) leukemia) [µM]	GI50 (MOLT-4 leukemia) [µM]	GI50 (MDA-N)	GI50 (HL-60(TB) leukemia) [µM]
Cc1c2c3ccccc3nc-2n(C)c2ccccc12	2.01	14.5	9.09 µM	25.2	13.9	12.7	5.33	10.3	6.78	–	–	–	–
CC(C)(C)OC(=O)N(CCCCNC(=O)OCc1ccccc1)CCCNC(=O)OCc1ccccc1	30	–	> 100 µM	> 100	> 100	> 100	> 100	> 100	> 100	53.9	–	–	–
CCP(=O)(CC)C(Cl)Cl	> 100	> 100	> 100 µM	> 100	> 100	> 100	> 100	–	> 100	> 100	–	–	–
O=C(NCCN1CCOCC1)c1cn2c(ccc3sc4ccccc4c(=O)c32)n1	> 100	> 100	> 100 µM	> 100	> 100	21.6	–	> 100	> 100	36.3	–	–	–
CN(Cc1cnc2nc(N)nc(N)c2n1)c1ccc(C(=O)N[C@@H](CCC(=O)O)C(=O)O)cc1	159	> 250	230 µM and > 250 µM	194	117	> 250	–	> 250	> 250	178	0.0278	0.0289 µM and 0.0122 µM	0.0259
CN(C)c1ccc(C=NCC2CCCN3CCCCC23)cc1 (stereo not drawn)	–	> 100	> 100 µM	–	> 100	–	–	> 100	> 100	–	–	–	–
O=C(/C=C/c1cccc(Oc2ccccc2)c1)NCc1ccc(C(=O)NCc2ccccc2)cc1	> 100	> 100	> 100 µM	> 100	> 100	> 100	> 100	> 100	> 100	–	–	–	–
CC1=NC2=Nc3nc(C)cc[n+]3CN2C=C1	–	–	> 100 µM	–	> 100	> 100	–	75.8	> 100	–	–	–	–
CC(NC(=O)NC(C)(C)C)NC(=O)C(N)CC(=O)O (stereo not drawn)	> 100	> 100	> 100 µM	–	> 100	> 100	> 100	> 100	> 100	–	–	–	–
CCOc1ccc2[nH]c3c(C)c4ccncc4c(C)c3c2c1	–	–	3.59 µM	–	3.01	2.16	> 100	2.9	–	–	–	–	–
CC(C)(C)OC(=O)NC1CC2(C=C(Br)C(=O)C(Br)=C2)OC1=O (stereo not drawn)	2.59	15.3	12.2 µM	4.18	22	31.7	–	27.5	34.8	7.65	–	–	–
CCN1CCC(O)(c2ccc(Oc3ccc(F)cc3)cc2)C(C(=O)c2ccc(Oc3ccc(F)cc3)cc2)C1 (stereo not drawn)	41.3	30.6	23.5 µM	6.5	28	30.1	28.1	31.8	30.1	–	–	–	–
CN(C)c1ccc(/C=C2\N=C(NNc3ccccc3)NC2=O)cc1	> 100	> 100	67.2 µM	–	65.3	27.3	> 100	68.1	> 100	–	–	–	–
CCOC(=O)c1nnsc1N/N=C\c1ccc([N+](=O)[O-])cc1	> 100	> 100	> 100 µM	–	> 100	> 100	> 100	> 100	> 100	–	–	–	–
CN1C/C(=C\c2cccs2)C(O)/C(=C/c2cccs2)C1 (stereo not drawn)	69.6	> 100	> 100 µM	–	> 100	> 100	52.7	> 100	> 100	–	–	–	–
Cc1ccccc1OC(C)C(=O)NN1C(=O)CSC1c1ccc(Cl)cc1 (stereo not drawn)	> 59.7	> 100	> 100 µM	> 46.3	> 100	> 93.4	–	> 100	> 100	47.5	–	–	–
CC(=O)OCC1OC(n2cc(F)c(=O)[nH]c2=O)C(NC(=O)OCc2ccccc2)C(OC(C)=O)C1OC(C)=O (stereo not drawn)	> 100	–	–	–	> 100	> 100	> 100	> 100	> 100	> 100	–	–	–
CN(C(=O)C12C3C4C5C3C1(C(=O)C13C6C7C8C6C1C8C73)C5C42)C(C)(C)C (stereo not drawn)	> 50	–	> 50 µM	> 50	> 50	> 50	> 37.9	> 50	–	> 26.9	–	–	–
NC1=C(NC(=O)Cc2ccccc2F)C(=O)c2ccccc2C1=O	> 100	–	69.7 µM	–	> 100	> 100	> 100	> 100	–	> 100	–	–	–
CN(C)CCNC(=O)c1ccc(NCCCN(C)CCCNc2ccc(C(=O)NCCN(C)C)c3[nH]c4ccccc4c(=O)c23)c2c(=O)c3ccccc3[nH]c12	1.09	–	1.98 µM	0.532	0.315	0.247	0.406	0.674	16	0.659	–	–	–
CS(=O)(=O)OCCN(CCOS(C)(=O)=O)c1ccc(C=Nc2cccc(Cl)c2)cc1	1.31	–	6.79 µM	0.307	10.6	20.7	> 100	46.6	27.3	> 100	–	–	–
N#CN/C(N)=N/C/N=C(\N)NC#N	> 100	–	> 100 µM	93.5	> 100	> 100	> 100	> 100	–	> 100	–	–	–
O=C1CC2CC3OC3[C@H]3c4cc5c(cc4C(=O)N1C23)OCO5 (stereo partly drawn)	> 100	–	> 100 µM	> 100	–	–	> 100	> 100	–	> 100	–	–	–
C/C(=N\N=C(\N)SB(F)F)c1ccc2ccccc2c1	–	> 100	> 100 µM	> 100	> 100	> 100	56.7	> 100	> 100	–	–	–	–
